Values quoted from earlier work, collected in US10806792B2 (Mayne Pharma International Pty Ltd., priority 2012, dated 2020).
Read-outs that look alike come from different tables or passages of the source.

What was measured:
[1] = tested on: typical infecting organisms for specific superficial and systemic mycoses; settings: for MIC RANGE: in µg/mL

CCC(C)n1ncn(-c2ccc(N3CCN(c4ccc(OCC5COC(Cn6cncn6)(c6ccc(Cl)cc6Cl)O5)cc4)CC3)cc2)c1=O (stereo not drawn) [itraconazole]
MIC RANGE ([1]; A. flavus complex, Aspergillosis): 0.03-8
MIC RANGE ([1]; A. nidulans complex, Aspergillosis): 0.03-8
MIC RANGE ([1]; A. niger complex, Aspergillosis): 0.03-8
MIC RANGE ([1]; A. terreus complex, Aspergillosis): 0.03-1
MIC RANGE ([1]; C. albicans, Candidiasis): 0.008-8
MIC90 ([1]; C. glabrata, Candidiasis): MIC90 = 16
MIC RANGE ([1]; C. kruset, Candidiasis): 0.008-8
MIC RANGE ([1]; C. parapsilosis, Candidiasis): 0.016-2
MIC RANGE ([1]; C. tropicalis, Candidiasis): 0.03-8
MIC RANGE ([1]; Epidermophyton floccosum, tinea corporis): 0.01-8
MIC RANGE ([1]; Epidermophyton floccosum, tinea cruris): 0.01-8
MIC RANGE ([1]; Epidermophyton floccosum, tinea manuum): 0.01-8
MIC RANGE ([1]; Epidermophyton floccosum, tinea pedis): 0.01-8
MIC RANGE ([1]; Epidermophyton floccosum, tinea unguium): 0.01-8
MIC RANGE ([1]; Microsporum sp. (audounti, canis, gypseum, ferrugineum et al.), tinea capitis): 0.01-4
MIC RANGE ([1]; Microsporum sp. (canis, et al.), tinea cruris): 0.01-4
MIC RANGE ([1]; Microsporum sp. (canis, et al.), tinea unguium): 0.01-4
MIC RANGE ([1]; Microsporum sp. (canis, gypseum, et al.), tinea corporis): 0.01-4
MIC RANGE ([1]; Microsporum sp. (canis, gypseum, et al.), tinea pedis): 0.01-4
MIC RANGE ([1]; Trichophyton sp. (rubrum, interdigitale, mentagrophytes.), tinea manuum): 0.01-8
MIC RANGE ([1]; Trichophyton sp. (rubrum, tonsurans interdigitale, mentagrophytes, concentricim, violaceum et al.), tinea corporis): 0.01-8
MIC RANGE ([1]; Trichophyton sp. (rubrum, tonsurans interdigitale, mentagrophytes, et al.), tinea cruris): 0.01-8
MIC RANGE ([1]; Trichophyton sp. (rubrum, tonsurans interdigitale, mentagrophytes, et al.), tinea pedis): 0.01-8
MIC RANGE ([1]; Trichophyton sp. (rubrum, tonsurans interdigitale, mentagrophytes, et al.), tinea unguium): 0.01-8
MIC RANGE ([1]; Trichophyton sp. (tonsurans violaceum, soudanese, schoenleinii, mentagrophytes, verrucossum, et al.), tinea capitis): 0.01-8
absolute oral bioavailability (100 mg dose of itraconazole oral solution): approximately 55%
reduction of Cmax and AUC in the fasting state vs after a light meal (in vivo): 50-70%
